# Results: PMC3867298 (Clinical cancer research : an official journal of the …, 2010)
# Where two headings read alike, the source gives them in different places. Marks after values point to notes of the source that are not given here.
# Assays:
# advanced solid tumors = assay: Antitumor activity by modified RECIST and CA125; format: in vivo, human
# [1] = tested on: patients with advanced solid tumors
# [2] = cohort 1, 60 mg/m^2, 7 patients
# [3] = cohort 2, 80 mg/m^2, 4 patients
# [4] = cohort 3, 120 mg/m^2, 3 patients
# [5] = cohort 4, 200 mg/m^2, 7 patients
# [6] = cohort 5, 160 mg/m^2, 8 patients
# [7] = expansion, 160 mg/m^2, 38 patients
# [8] = treatment-related, worst grade per patient, all cycles, N = 67
compound,measurement,setting,value
Cc1cc(Nc2cc(N3CCN(C)CC3)nc(/C=C/c3ccccc3)n2)n[nH]1 [ENMD-2076],Colorectal cancer patients with SD ≥ 12 weeks,"advanced solid tumors; 19 colorectal cancer patients, 5 patients",26%
same,Ovarian cancer patients with PR or SD ≥ 12 weeks,"advanced solid tumors; 20 ovarian cancer patients, all dose levels, twelve patients",60%
same,Partial responses (PR) as best response,"advanced solid tumors; 58 evaluable patients, 2 patients, 1 confirmed, both ovarian cancer",3%
same,Progressive disease (PD) as best response,"advanced solid tumors; 58 evaluable patients, 7 patients",12%
same,Patients with decreases in tumor measurements from baseline not qualifying as PR,advanced solid tumors; twenty patients,30%
same,Patients with grade 3 neutropenia requiring dose delay and reduction,"[1]; 200 mg/m^2, 3 of 7",43%
same,Patients with neutropenia,"[1]; 200 mg/m^2 during dose escalation, 4 of 7",57%
same,Rate of grade ≥ 3 neutropenia,[1]; 46 patients treated at 160 mg/m^2 (2/46),4%
same,Rate of grade ≥ 3 fatigue,[1]; 46 patients treated at 160 mg/m^2 (3/46),7%
same,Rate of grade ≥ 3 hypertension,[1]; 46 patients treated at 160 mg/m^2 (11/46),24%
same,Patients with adverse events meeting DLT criteria,"[1]; MTD expansion, 12/38, 16 events",32%
same,Patients requiring dose reduction,"[1]; MTD expansion, 14/38",37%
same,Patients with dose delays,"[1]; MTD expansion, 24/38",63%
same,Adrenal insufficiency,[1]; all patients,not observed
same,Patients requiring dose reduction due to toxicity,[1]; at the MTD of 160 mg/m^2,33%
same,Patients with hypothyroidism,[1]; both in the expanded 160 mg/m^2 cohort,2 patients
same,No. of patients with DLT (cycle 1),[1]; [2],1 ^†
same,No. of patients with dose delays,[1]; [2],2 (29%)
same,No. patients with dose reductions,[1]; [2],1 (14%)
same,No. of patients with DLT (cycle 1),[1]; [3],0
same,No. of patients with dose delays,[1]; [3],3 (75%)
same,No. patients with dose reductions,[1]; [3],1 (25%)
same,No. of patients with DLT (cycle 1),[1]; [4],0
same,No. of patients with dose delays,[1]; [4],1 (33%)
same,No. patients with dose reductions,[1]; [4],0
same,No. of patients with dose delays,[1]; [5],7 (100%)
same,No. patients with dose reductions,[1]; [5],3 (43%)
same,No. of patients with dose delays,[1]; [6],3 (38%)
same,No. patients with dose reductions,[1]; [6],1 (13%)
same,Patients with fatigue of grade 3 to 4 severity,[1]; expanded 160 mg/m^2 cohort,2 patients
same,Patients with tooth discoloration,[1]; expanded 160 mg/m^2 cohort,Four
same,Patients with grade 3/4 neutropenia,"[1]; expanded 160 mg/m^2 cohort, 2 of 38",5%
same,Patients with grade 1/2 neutropenia,"[1]; expanded 160 mg/m^2 cohort, 3 of 38",8%
same,Patients with fatigue,"[1]; expanded 160 mg/m^2 cohort, 12/38",32%
same,No. of patients with DLT (met the definition of DLT),[1]; [7],12 ^§
same,No. of patients with dose delays,[1]; [7],24 (63%)
same,No. patients with dose reductions,[1]; [7],14 (37%)
same,Patients in whom hypertension resulted in dose delay or reduction,[1]; in vivo,16%
same,Recommended phase 2 dose,"[1]; oral once daily, continuous dosing",160 mg/m^2
same,Maximum tolerated dose (MTD),"[1]; oral, continuous once daily dosing",160 mg/m^2
same,Median time to onset of hypertension following initial dosing,[1]; range 2–60 days,14 days
same,Patients with hypertension of grade 3/4 severity,[1]; total patients,21%
same,"Anorexia, any grade",[1]; [8],24%
same,"Anorexia, grade 3, No. of patients",[1]; [8],0
same,"Anorexia, grade 4, No. of patients",[1]; [8],0
same,"Constipation, any grade",[1]; [8],15%
same,"Constipation, any grade, No. of patients",[1]; [8],10
same,"Constipation, grade 3, No. of patients",[1]; [8],0
same,"Constipation, grade 4, No. of patients",[1]; [8],0
same,"Dehydration, any grade, No. of patients",[1]; [8],12
same,"Dehydration, grade 3",[1]; [8],1%
same,"Dehydration, grade 3, No. of patients",[1]; [8],1
same,"Dehydration, grade 4, No. of patients",[1]; [8],0
same,"Diarrhea, any grade, No. of patients",[1]; [8],17
same,"Diarrhea, grade 3",[1]; [8],3%
same,"Diarrhea, grade 3, No. of patients",[1]; [8],2
same,"Diarrhea, grade 4, No. of patients",[1]; [8],0
same,"Dysgeusia, any grade",[1]; [8],10%
same,"Dysgeusia, any grade, No. of patients",[1]; [8],7
same,"Dysgeusia, grade 3, No. of patients",[1]; [8],0
same,"Dysgeusia, grade 4, No. of patients",[1]; [8],0
same,"Dyspnea, any grade, No. of patients",[1]; [8],8
same,"Dyspnea, grade 3",[1]; [8],4%
same,"Dyspnea, grade 3, No. of patients",[1]; [8],3
same,"Dyspnea, grade 4, No. of patients",[1]; [8],0
same,"Fatigue, any grade",[1]; [8],31%
same,"Fatigue, any grade, No. of patients",[1]; [8],21
same,"Fatigue, grade 3",[1]; [8],3%
same,"Fatigue, grade 3, No. of patients",[1]; [8],2
same,"Fatigue, grade 4, No. of patients",[1]; [8],0
same,"Glossodynia, any grade, No. of patients",[1]; [8],11
same,"Glossodynia, grade 3, No. of patients",[1]; [8],0
same,"Glossodynia, grade 4, No. of patients",[1]; [8],0
same,"Hypertension, any grade, No. of patients",[1]; [8],37
same,"Hypertension, grade 3, No. of patients",[1]; [8],12
same,"Hypertension, grade 4",[1]; [8],3%
